# Values joined by “and” are separate entries in the source; they are usually repeats but may differ in a detail not shown here. Identical values can stand only once.
# Test system: 786-0 complex spheroid viability
# Experiment: Anticancer human tumor 786-0 cell line growth inhibition;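 note: spheroids exposed to agents for seven days before readout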
# Conditions: for viability, T/C: stronger effect = lower value
# Procedure, shortened: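 Complex spheroids of tumor cells with HUVEC and human MSCs, exposed to iadademstat combined with other agents. Each agent tested in half-log steps from near clinical Cmax (else 10 microM top), DMSO ≤0.25%.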
# [1] = curve of first compound, second compound 0.1 µM
# [2] = curve of first compound, second compound 0.316 µM
# [3] = curve of first compound, second compound 1 µM
# [4] = curve of first compound, second compound 3.16 µM
# [5] = curve of first compound, second compound 10 µM
# [6] = second compound 0.1 µM, first compound 0.00949 µM
# [7] = second compound 0.1 µM, first compound 0.03 µM
# [8] = second compound 0.1 µM, first compound 0.0949 µM
# [9] = second compound 0.1 µM, first compound 0.3 µM
# [10] = second compound 0.1 µM, first compound 0.949 µM
# [11] = second compound 0.1 µM, first compound 3 µM
# [12] = second compound 0.316 µM, first compound 0.00949 µM
# [13] = second compound 0.316 µM, first compound 0.03 µM
# [14] = second compound 0.316 µM, first compound 0.0949 µM
# [15] = second compound 0.316 µM, first compound 0.3 µM
# [16] = second compound 0.316 µM, first compound 0.949 µM
# [17] = second compound 0.316 µM, first compound 3 µM
# [18] = second compound 1 µM, first compound 0.00949 µM
# [19] = second compound 1 µM, first compound 0.03 µM
# [20] = second compound 1 µM, first compound 0.0949 µM
# [21] = second compound 1 µM, first compound 0.3 µM
# [22] = second compound 1 µM, first compound 0.949 µM
# [23] = second compound 1 µM, first compound 3 µM
# [24] = second compound 3.16 µM, first compound 0.00949 µM
# [25] = second compound 3.16 µM, first compound 0.03 µM
# [26] = second compound 3.16 µM, first compound 0.0949 µM
# [27] = second compound 3.16 µM, first compound 0.3 µM
# [28] = second compound 3.16 µM, first compound 0.949 µM
# [29] = second compound 3.16 µM, first compound 3 µM
# [30] = second compound 10 µM, first compound 0.00949 µM
# [31] = second compound 10 µM, first compound 0.03 µM
# [32] = second compound 10 µM, first compound 0.0949 µM
# [33] = second compound 10 µM, first compound 0.3 µM
# [34] = second compound 10 µM, first compound 0.949 µM
# [35] = second compound 10 µM, first compound 3 µM
# [36] = second compound 0.1 µM, first compound 0.000316 µM
# [37] = second compound 0.1 µM, first compound 0.001 µM
# [38] = second compound 0.1 µM, first compound 0.00316 µM
# [39] = second compound 0.1 µM, first compound 0.01 µM
# [40] = second compound 0.1 µM, first compound 0.0316 µM
# [41] = second compound 0.1 µM, first compound 0.1 µM
# [42] = second compound 0.316 µM, first compound 0.000316 µM
# [43] = second compound 0.316 µM, first compound 0.001 µM
# [44] = second compound 0.316 µM, first compound 0.00316 µM
# [45] = second compound 0.316 µM, first compound 0.01 µM
# [46] = second compound 0.316 µM, first compound 0.0316 µM
# [47] = second compound 0.316 µM, first compound 0.1 µM
# [48] = second compound 1 µM, first compound 0.000316 µM
# [49] = second compound 1 µM, first compound 0.001 µM
# [50] = second compound 1 µM, first compound 0.00316 µM
# [51] = second compound 1 µM, first compound 0.01 µM
# [52] = second compound 1 µM, first compound 0.0316 µM
# [53] = second compound 1 µM, first compound 0.1 µM
# [54] = second compound 3.16 µM, first compound 0.000316 µM
# [55] = second compound 3.16 µM, first compound 0.001 µM
# [56] = second compound 3.16 µM, first compound 0.00316 µM
# [57] = second compound 3.16 µM, first compound 0.01 µM
# [58] = second compound 3.16 µM, first compound 0.0316 µM
# [59] = second compound 3.16 µM, first compound 0.1 µM
# [60] = second compound 10 µM, first compound 0.000316 µM
# [61] = second compound 10 µM, first compound 0.001 µM
# [62] = second compound 10 µM, first compound 0.00316 µM
# [63] = second compound 10 µM, first compound 0.01 µM
# [64] = second compound 10 µM, first compound 0.0316 µM
# [65] = second compound 10 µM, first compound 0.1 µM
compound,measurement,setting,value
Nc1ccccc1NC(=O)c1ccc(CNC(=O)OCc2cccnc2)cc1 + NC1CC1c1ccc(-c2cccc(O)c2)cc1,IC50,[1],1520 nM
same,IC50,[2],1770 nM
same,IC50,[3],1520 nM
same,IC50,[4],1380 nM
same,IC50,[5],1370 nM
same,"viability, T/C",[6],107%
same,"viability, T/C",[7],108%
same,"viability, T/C",[8],97.8%
same,"viability, T/C",[9],96.1%
same,"viability, T/C",[10],66.3%
same,"viability, T/C",[11],25.6%
same,"viability, T/C",[12],113%
same,"viability, T/C",[13],110%
same,"viability, T/C",[14],112%
same,"viability, T/C",[15],103%
same,"viability, T/C",[16],78.8%
same,"viability, T/C",[17],25.8%
same,"viability, T/C",[18],103%
same,"viability, T/C",[19],114%
same,"viability, T/C",[20],110%
same,"viability, T/C",[21],91.8%
same,"viability, T/C",[22],71%
same,"viability, T/C",[23],21.1%
same,"viability, T/C",[24],99.4%
same,"viability, T/C",[25],102%
same,"viability, T/C",[26],98%
same,"viability, T/C",[27],89.9%
same,"viability, T/C",[28],64.3%
same,"viability, T/C",[29],20.7%
same,"viability, T/C",[30],103%
same,"viability, T/C",[31],101%
same,"viability, T/C",[32],97.9%
same,"viability, T/C",[33],83.1%
same,"viability, T/C",[34],67.2%
same,"viability, T/C",[35],17.5%
CC[C@@]1(O)C(=O)OCc2c1cc1n(c2=O)Cc2cc3c(CN(C)C)c(O)ccc3nc2-1 + NC1CC1c1ccc(-c2cccc(O)c2)cc1,IC50,[1],5.02 nM
same,IC50,[2],4.87 nM
same,IC50,[3],4.86 nM
same,IC50,[4],4.67 nM
same,IC50,[5],4.02 nM
same,"viability, T/C",[36],112%
same,"viability, T/C",[37],109%
same,"viability, T/C",[38],74.6%
same,"viability, T/C",[39],13.2%
same,"viability, T/C",[40],6.23%
same,"viability, T/C",[41],2.94%
same,"viability, T/C",[42],109%
same,"viability, T/C",[43],105%
same,"viability, T/C",[44],73.6%
same,"viability, T/C",[45],10.7%
same,"viability, T/C",[46],4.65%
same,"viability, T/C",[47],3.46%
same,"viability, T/C",[48],119%
same,"viability, T/C",[49],109%
same,"viability, T/C",[50],73.4%
same,"viability, T/C",[51],10.8%
same,"viability, T/C",[52],4.54%
same,"viability, T/C",[53],2.99%
same,"viability, T/C",[54],107%
same,"viability, T/C",[55],107%
same,"viability, T/C",[56],70%
same,"viability, T/C",[57],10.8%
same,"viability, T/C",[58],5.39%
same,"viability, T/C",[59],2.22%
same,"viability, T/C",[60],104%
same,"viability, T/C",[61],109%
same,"viability, T/C",[62],61%
same,"viability, T/C",[63],8.93%
same,"viability, T/C",[64],3.25%
same,"viability, T/C",[65],2.9%
CC(C)CC(NC(=O)CNC(=O)c1cc(Cl)ccc1Cl)B1OC(=O)CC(CC(=O)O)(C(=O)O)O1 (configuration not stated) + NC1CCC(NC2CC2c2ccccc2)CC1,IC50,[1],12.9 nM
same,IC50,[2],10.7 nM
same,IC50,[3],12 nM
same,IC50,[4],9.62 nM
same,IC50,[5],10.2 nM
same,"viability, T/C",[36],127%
same,"viability, T/C",[37],123%
same,"viability, T/C",[38],110%
same,"viability, T/C",[39],52.4%
same,"viability, T/C",[40],32.4%
same,"viability, T/C",[41],9.25%
same,"viability, T/C",[42],129%
same,"viability, T/C",[43],130%
same,"viability, T/C",[44],121%
same,"viability, T/C",[45],51.6%
same,"viability, T/C",[46],30.7%
same,"viability, T/C",[47],8.11%
same,"viability, T/C",[48],113%
same,"viability, T/C",[49],128%
same,"viability, T/C",[50],112%
same,"viability, T/C",[51],52.3%
same,"viability, T/C",[52],34.1%
same,"viability, T/C",[53],10%
same,"viability, T/C",[54],109%
same,"viability, T/C",[55],112%
same,"viability, T/C",[56],107%
same,"viability, T/C",[57],46.7%
same,"viability, T/C",[58],29.5%
same,"viability, T/C",[59],9.53%
same,"viability, T/C",[60],96.8%
same,"viability, T/C",[61],91.4%
same,"viability, T/C",[62],82.1%
same,"viability, T/C",[63],50.1%
same,"viability, T/C",[64],19.7%
same,"viability, T/C",[65],7.29%
NS(=O)(=O)OCC1CC(n2ccc3c(NC4CCc5ccccc54)ncnc32)CC1O (configuration not stated) + NC1CCC(NC2CC2c2ccccc2)CC1,IC50,[1],125 nM
same,IC50,[2],139 nM
same,IC50,[3],153 nM
same,IC50,[4],133 nM
same,IC50,[5],104 nM
same,"viability, T/C",[6],111%
same,"viability, T/C",[7],86.7%
same,"viability, T/C",[8],65.6%
same,"viability, T/C",[9],13.4%
same,"viability, T/C",[10],3.43%
same,"viability, T/C",[11],5.07%
same,"viability, T/C",[12],115%
same,"viability, T/C",[13],87.3%
same,"viability, T/C",[14],71.4%
same,"viability, T/C",[15],15.2%
same,"viability, T/C",[16],3.67%
same,"viability, T/C",[17],5.22%
same,"viability, T/C",[18],113%
same,"viability, T/C",[19],94.6%
same,"viability, T/C",[20],74.2%
same,"viability, T/C",[21],17.9%
same,"viability, T/C",[22],3.16%
same,"viability, T/C",[23],4.86%
same,"viability, T/C",[24],101%
same,"viability, T/C",[25],78.9%
same,"viability, T/C",[26],67.3%
same,"viability, T/C",[27],15.5%
same,"viability, T/C",[28],3.16%
same,"viability, T/C",[29],3.27%
same,"viability, T/C",[30],73.6%
same,"viability, T/C",[31],58.5%
same,"viability, T/C",[32],54.6%
same,"viability, T/C",[33],15.5%
same,"viability, T/C",[34],1.53%
same,"viability, T/C",[35],1.72%
CCN(c1cc(-c2ccc(CN3CCOCC3)cc2)cc(C(=O)NCc2c(C)cc(C)[nH]c2=O)c1C)C1CCOCC1,"viability, T/C",compound 0.00949 µM,100%
same,"viability, T/C",compound 0.03 µM,103% and 105%
same,"viability, T/C",compound 0.0949 µM,106% and 100%
same,"viability, T/C",compound 0.3 µM,104% and 102%
same,"viability, T/C",compound 0.949 µM,102% and 98%
same,"viability, T/C",compound 3 µM,97.4% and 96.9%
same,IC50,curve of compound,> 3000 nM

# Source: PubChem BioAssay AID1918944 (Molecular Pharmacology Branch, DTP, NCI, 2023)
